Data published in patent publication US12290512B2, “Gel composition with an anaesthetic effect of short and long term duration” (priority 2018, dated 2025).

Test: anaesthetic effect (onset and duration) of gel composition administered through the urethra
Type: in vivo
Conditions: gel compositions comprising the anaesthetic

Compound: CCCN1CCCC[C@H]1C(=O)Nc1c(C)cccc1C [ropivacaine]
- duration of action: 2 to 10 h
- onset of action: 10 to 20 min

Compound: CCN(CC)CC(=O)Nc1c(C)cccc1C [lidocaine]
- duration of action: 0.25 to 0.333 h

Compound: CCCCN1CCCCC1C(=O)Nc1c(C)cccc1C (centres unmarked) [bupivacaine]
- duration of action: up to 7 hours
- onset of action: 7 to 10 min
